System: breast cancer cell lines MCF-7, SK-BR-3, T47D
Experiment: Selectivity towards all breast cancer cell lines tested (SRB)
Type: cell-based, human
Settings: IC50 BALB/3T3/IC50 of MCF-7, SK-BR-3, T47D
Protocol: The selective effect of a drug can be expressed by the selectivity index (SI), which is determined by comparing the cytotoxic activity of each compound against each cancer cell line with the activity against a normal cell line. The SI was calculated as the IC50 ratio for a normal cell line (SIA—HLMEC; SIB—BALB/3T3) to the IC50 value for the corresponding tumor cell line using the following equation:(1) SI=IC50 for normal cell line/IC50 for cancerous cell line […]
The details of this technique were described by Skehan et al.. […] The unbound dye was removed by washing the plates five times with 1% acetic acid, whereas the stain bound to the cells was extracted with 150 µL of 10 mM unbuffered Tris base for determination of the optical density at a 540 nm wavelength in a computer-interfaced, 96-well microtiter plate reader–Multiskan FC photometer (Thermo Scientific, Waltham, MA, USA). The background optical density was measured in the wells filled with culture medium, without the cells. […]

With COc1cc(O)c(CC=C(C)C)c2c1C(=O)/C(=C/c1ccc(O)cc1)O2 [compound 2, (Z)-6,4′-dihydroxy-4-methoxy-7-prenylaurone] the “selectivity index SIB, range over breast cancer cell lines” value was 3.93–5.50.
